# Data as given in publication PMC6692352, “DF2726A, a new IL-8 signalling inhibitor, is able to counteract chemotherapy-induced neuropathic pain” (Scientific Reports, 2019).
# Columns and labels:
# TRPA1 = test: Western blot of DRG of oxaliplatin rats, TRPA1; type: in vivo, male Wistar rats; conditions: 30 mg/kg os
# Method: Animals were sacrificed and dorsal root ganglia (DRG) (L4-L6) were removed and stored at […]. They were homogenized on ice-cold lysis buffer [20 mM Tris–HCl (pH 7.5), 10 mM NaF, 150 mM NaCl, 1% Nonidet P-40, 1 mM phenylmethylsulfonyl fluoride, 1 mM Na3VO4, leupeptin and trypsin inhibitor 10 μg/mL; 20 µl/sample, as previously described.
# After 1 h, tissue lysates were obtained by centrifugation at 20,000 g for 15 min at 4 °C. Protein concentrations were estimated by the Bio-Rad protein assay using bovine serum albumin as standard.
# DRG lysate proteins (30 μg) were dissolved in Laemmli sample buffer, boiled for 5 min, and separated on SDS-polyacrylamide gel elctrophoresis and transferred onto nitrocellulose membrane (240 mA for 40 min at room temperature). […] The protein bands were scanned and densitometrically analyzed with a model GS-700 imaging densitometer (Bio-Rad Laboratories, Milan, Italy). […]
# [1] = Pharmacokinetics in the rat, intravenous and oral; type: in vivo, Sprague Dawley rats
# Method: Pharmacokinetics studies in the rat
# DF2726A was administered to male Sprague Dawley rats (Charles River Srl. Calco Italy, 6-8 weeks old, n = 4/groups) intravenously (5 mg/kg, Dulbecco’s phosphate buffered saline) and orally (5 mg/kg Dulbecco’s phosphate buffered saline).
# On day of treatment, an exact amount of DF2726A was dissolved in the appropriate volume of vehicle to obtain a final concentration of 2.0 mg/mL (IV) and 1 mg/mL (OS). Both of the formulations were filtered at 0.45 μm filter before use in animals.
# After the administration of DF2726A, a 0.15-0.20 mL of blood was collected via jugular vein catheters with zero-dead volume disposable syringes (1 mL iv Insulin syringes with attached 25G […]
# 5/8 inch needles; Chemil s.r.l., Padova, Italy) at 0.08, 0.5, 1, 3, 6, 12, 24, 36 and 48 h for i.v. dosing and at 0.25, 0.5, 1, 3, 6, 12, 24, 36 and 48 h for oral dosing. After each blood withdrawal, the catheters were washed with 0.15-0.2 mL of sterile physiological saline and filled with 0.03 mL of heparin saline solution (0.25 U.I/mL). The heparinized blood was immediately centrifuged (8000 RPM for 5 min at approximately 4°C) and the resultant plasma transferred into vials and stored at - 20°C until analysis. DF2726A concentrations were quantified by HLPC-MS/MS using a chromatographic method with a lower limit of quantitation of 1 ng·mL -1. Non-compartmental analysis (Gibaldi and Perrier, 1982) were used to calculate the pharmacokinetic parameters using a MKModel by Nick Holford software Version 4, (Biosoft, Ferguson, MO 63 135, USA). […]
# COX2 = COX2 protein western blotting in F11-derived neurons; type: cell-based; conditions: DF2726A 1 µM + oxaliplatin 20 µM, 24 h
# Method: Following neuronal differentiation, neurons were treated for 24 h with DF2726A (1 μM final concentration), oxaliplatin (Sigma-Aldrich; 20 µM final concentration), or the combination of the two molecules.
# Control and treated cells were collected and lysed in ice-cold RIPA buffer (PBS pH 7.4 containing 0.5% sodium deoxycolate, 1% Igepal, 0.1% SDS, 5 mM EDTA, 1% protease and phosphatase inhibitor cocktails; Sigma-Aldrich) as described in[22],[33]. Protein lysates (30 μg) were separated on 8–12% SDS-polyacrilamide gel and electroblotted onto polyvinyldifluoride membrane (PVDF; Sigma-Aldrich). Nonspecific binding sites were blocked by 5% non-fat dry milk (Bio-Rad Laboratories, Hercules, CA, USA) in Tris buffered saline (TBS: 20 mM Tris- HCl, pH 7.4, containing 150 mM NaCl) for 30 min at RT. […] The relative densities of immunoreactive bands were determined and normalized HRP-conjugated β-actin, using ImageJ software. […]
# [2] = single 5 mg/kg intravenous dose
compound,measurement,setting,value
CC(C)(C(=O)O)c1ccc(Nc2nc(C(F)(F)F)cs2)cc1 [DF2726A],TRPA1 expression in DRG of oxaliplatin rats,TRPA1,significant reduction in the expression
same,AUC0-last Oral,[1]; 5 mg/kg oral dose,136.3 ± 22.6 µg·h/mL
same,Cmax Oral,[1]; 5 mg/kg oral dose,6860 ± 1600 ng/mL
same,t1/2 Oral,[1]; 5 mg/kg oral dose,16.2 ± 3.3 h
same,tmax Oral,[1]; 5 mg/kg oral dose,6.0 h
same,F (oral bioavailability),[1]; 5 mg/kg oral vs 5 mg/kg intravenous,96.8%
same,AUC0-last Intravenous,[1]; [2],140.8 ± 24.9 µg·h/mL
same,CLtotal Intravenous,[1]; [2],0.62 ± 0.11 mL/min/kg
same,Vd Intravenous,[1]; [2],0.52 ± 0.09 L/kg
same,t1/2 Intravenous,[1]; [2],15.2 ± 3.8 h
same,"COX2 expression levels, oxaliplatin-treated neurons",COX2,comparable to the control
